Source: ChEMBL document CHEMBL3580562 (J Med Chem, 2015)

Tests used:
Mus musculus = experiment: AUC in mouse assessed as GW-7604 at 100 mg/kg, po; format: ADME, organism-based; details: in vivo
[1] = AUC in mouse at 100 mg/kg, po; format: ADME, organism-based; details: in vivo
[2] = Half life in phosphate buffer at pH 7.4 at 37 degC; format: physicochemical
[3] = Drug uptake in CD-IGS rat at 1 mg/kg, po administered for 3 days measured at 24 hrs post last dose; format: ADME, organism-based; details: in vivo, read-out: Drug uptake
[4] = AUC in mouse at 10 mg/kg, po; format: ADME, organism-based; details: in vivo
[5] = Drug uptake in CD-IGS rat at 1 mg/kg, po administered for 3 days measured at 6 hrs post last dose; format: ADME, organism-based; details: in vivo, read-out: Drug uptake
[6] = Drug level in microsomes (unknown origin) treated with (E)-3-(4-((E)-2-(2-chloro-4-fluorophenyl)-1-(1H-indazol-5-yl)but-1-enyl)phenyl)acrylic acid; format: ADME, Microsome
[7] = AUC in 17-beta estradiol pellets supplemented nu/nu mouse xenografted with tamoxifen-resistant human MCF7 cells at 100 mg/kg/day, po administered for 4 weeks measured on day 28; format: ADME, organism-based; details: in vivo
[8] = Oral bioavailability in rat at 10 mg/kg; format: ADME, organism-based; details: in vivo
[9] = Cmax in dog at 10 mg/kg, po; format: ADME, organism-based, Canis lupus familiaris; parameters: dose 10 mg/kg, route oral; details: in vivo
[10] = Half life in dog at 3 mg/kg, iv; format: ADME, organism-based, Canis lupus familiaris; details: in vivo
[11] = Volume of distribution at steady state in rat at 3 mg/kg, iv and 10 mg/kg, po; format: ADME, organism-based; details: in vivo, read-out: Vdss
[12] = AUC in cynomolgus monkey at 10 mg/kg, po; format: ADME, organism-based, Macaca fascicularis; details: in vivo
[13] = AUC in dog at 10 mg/kg, po; format: ADME, organism-based, Canis lupus familiaris; details: in vivo
[14] = Volume of distribution at steady state in mouse at 3 mg/kg, iv and 10 mg/kg, po; format: ADME, organism-based; details: in vivo, read-out: Vdss
in vivo = details: mouse, iv, 3 mg/kg
[15] = Oral bioavailability in dog at 10 mg/kg; format: ADME, organism-based, Canis lupus familiaris; details: in vivo
[16] = Drug metabolism in microsomes (unknown origin) assessed as formation of (2S,3S,4R,5R,6S)-6-((E)-3-(4-((E)-2-(2-chloro-4-fluorophenyl)-1-(1H-indazol-5-yl)but-1-enyl)phenyl)acryloyloxy)-3,4,5-trihydroxytetrahydro-2H-pyran-2-carboxylic acid; format: ADME, Microsome
[17] = Clearance in rat at 3 mg/kg, iv and 10 mg/kg, po; format: ADME, organism-based; details: in vivo
[18] = Clearance in dog at 3 mg/kg, iv and 10 mg/kg, po; format: ADME, organism-based, Canis lupus familiaris; details: in vivo
[19] = AUC in rat at 10 mg/kg, po; format: ADME, organism-based; details: in vivo
[20] = Cmax in mouse at 10 mg/kg, po; format: ADME, organism-based; parameters: dose 10 mg/kg, route oral; details: in vivo
[21] = Oral bioavailability in cynomolgus monkey at 10 mg/kg; format: ADME, organism-based, Macaca fascicularis; details: in vivo
[22] = Half life in mouse at 3 mg/kg, iv; format: ADME, organism-based; details: in vivo
[23] = AUC in 17-beta estradiol pellets supplemented nu/nu mouse xenografted with tamoxifen-resistant human MCF7 cells at 30 mg/kg/day, po administered for 4 weeks measured on day 28; format: ADME, organism-based; details: in vivo
[24] = Half life in cynomolgus monkey at 3 mg/kg, iv; format: ADME, organism-based, Macaca fascicularis; details: in vivo
[25] = Half life in rat at 3 mg/kg, iv; format: ADME, organism-based; details: in vivo
[26] = Volume of distribution at steady state in cynomolgus monkey at 3 mg/kg, iv and 10 mg/kg, po; format: ADME, organism-based, Macaca fascicularis; details: in vivo, read-out: Vdss
[27] = Cmax in rat at 10 mg/kg, po; format: ADME, organism-based; parameters: dose 10 mg/kg, route oral; details: in vivo
[28] = Cmax in cynomolgus monkey at 10 mg/kg, po; format: ADME, organism-based, Macaca fascicularis; parameters: dose 10 mg/kg, route oral; details: in vivo
[29] = Clearance in cynomolgus monkey at 3 mg/kg, iv and 10 mg/kg, po; format: ADME, organism-based, Macaca fascicularis; details: in vivo
[30] = Volume of distribution at steady state in dog at 3 mg/kg, iv and 10 mg/kg, po; format: ADME, organism-based, Canis lupus familiaris; details: in vivo, read-out: Vdss
[31] = AUC in 17-beta estradiol pellets supplemented nu/nu mouse xenografted with tamoxifen-resistant human MCF7 cells at 200 mg/kg, sc administered 3 times per week for 4 weeks measured on day 28; format: ADME, organism-based; details: in vivo

## CC/C(=C(\c1ccc(O)cc1)c1ccc(/C=C/C(=O)O)cc1)c1ccccc1
Mus musculus
  AUC: 13000 ng·h/mL

## CC/C(=C(\c1ccccc1)c1ccc(/C=C/C(=O)O)cc1)c1ccccc1
[1]
  AUC: 137000 ng·h/mL

## O=C(Cc1ccccc1Nc1c(Cl)cccc1Cl)O[C@@H]1O[C@H](C(=O)O)[C@@H](O)[C@H](O)[C@H]1O
[2]
  half-life: 0.9 h

## CC/C(=C(/c1ccc(/C=C/C(=O)O)cc1)c1cccc2[nH]ncc12)c1ccccc1
[3]
  concentration at 24 h: 0.1 nM
[4]
  AUC: 2800 ng·h/mL

## CC/C(=C(/c1ccc(/C=C/C(=O)O)cc1)c1ccc2[nH]c(=O)oc2c1)c1ccccc1
[3]
  concentration at 24 h: 0.2 nM
[4]
  AUC: 3000 ng·h/mL

## CC/C(=C(/c1ccc(/C=C/C(=O)O)cc1)c1ccc2[nH]ccc2c1)c1ccccc1
[4]
  AUC: 9400 ng·h/mL

## CC/C(=C(/c1ccc(/C=C/C(=O)O)cc1)c1ccc2[nH]nnc2c1)c1ccccc1
[4]
  AUC: 2300 ng·h/mL

## CC/C(=C(/c1ccc(/C=C/C(=O)O)cc1)c1ccc2[nH]ncc2c1)c1ccccc1
[3]
  concentration at 24 h: 3.8 nM
[4]
  AUC: 5800 ng·h/mL
[1]
  AUC: 240000 ng·h/mL

## CC/C(=C(/c1ccc(/C=C/C(=O)O)cc1)c1ccc2[nH]ncc2c1)c1ccncc1C
[3]
  concentration at 24 h: 7.6 nM
[4]
  AUC: 81 ng·h/mL

## CC/C(=C(/c1ccc(/C=C/C(=O)O)cc1)c1ccc2[nH]ncc2c1)c1ccncc1Cl
[3]
  concentration at 24 h: 0.5 nM
[4]
  AUC: 110 ng·h/mL

## CC/C(=C(/c1ccc(/C=C/C(=O)O)cc1)c1ccc2[nH]ncc2c1)c1cscc1C
[3]
  concentration at 24 h: 10 nM
[4]
  AUC: 3800 ng·h/mL

## CC/C(=C(/c1ccc(/C=C/C(=O)O)cc1)c1ccc2[nH]ncc2c1)c1ccccc1Cl
[3]
  concentration at 24 h: 3.7 nM
[4]
  AUC: 15000 ng·h/mL

## CC/C(=C(/c1ccc(/C=C/C(=O)O)cc1)c1ccc2[nH]ncc2c1)c1cccc(Cl)c1
[3]
  concentration at 24 h: 11 nM
[4]
  AUC: 11000 ng·h/mL

## CC/C(=C(/c1ccc(/C=C/C(=O)O)cc1)c1ccc2[nH]ncc2c1)c1ccccc1C#N
[4]
  AUC: 200 ng·h/mL

## CC/C(=C(/c1ccc(/C=C/C(=O)O)cc1)c1ccc2[nH]ncc2c1)c1ccccc1C
[3]
  concentration at 24 h: 1.7 nM
[4]
  AUC: 7200 ng·h/mL

## CC/C(=C(/c1ccc(/C=C/C(=O)O)cc1)c1ccc2[nH]ncc2c1)c1ccc(C#N)cc1C
[5]
  concentration at 6 h: 14 nM
[4]
  AUC: 4300 ng·h/mL

## CC/C(=C(/c1ccc(/C=C/C(=O)O)cc1)c1ccc2[nH]ncc2c1)c1ccc(C#N)cc1Cl
[5]
  concentration at 6 h: 10 nM
[4]
  AUC: 2900 ng·h/mL

## CC/C(=C(/c1ccc(/C=C/C(=O)O[C@@H]2O[C@H](C(=O)O)[C@@H](O)[C@H](O)[C@H]2O)cc1)c1ccc2[nH]ncc2c1)c1ccc(F)cc1Cl
[6]
  Drug metabolism: metabolite_detected
[2]
  half-life: 8.1 h

## COc1ccc(-c2sc3cc(O)ccc3c2Oc2ccc(OCCN3CCCCC3)cc2)cc1 [ARZOXIFENE]
[7]
  AUC at 672 h: 50000 ng·h/mL

## CC/C(=C(/c1ccc(/C=C/C(=O)O)cc1)c1ccc2[nH]ncc2c1)c1ccc(F)cc1Cl [BRILANESTRANT]
[7]
  AUC at 672 h: 45000 ng·h/mL
[8]
  bioavailability: 49%
[9]
  Cmax: 20000 ng/mL
[10]
  half-life: 11 h
[11]
  Vd: 1.9 L/kg
[12]
  AUC: 10000 ng·h/mL
[3]
  concentration at 24 h: 5.2 nM
[13]
  AUC: 69000 ng·h/mL
[14]
  Vd: 1.2 L/kg
In vivo
  clearance: 11 mL/min/kg
[15]
  bioavailability: 61%
[16]
  Drug metabolism: metabolite_detected
[17]
  clearance: 14 mL/min/kg
[18]
  clearance: 1.6 mL/min/kg
[19]
  AUC: 5800 ng·h/mL
[20]
  Cmax: 4400 ng/mL
[21]
  bioavailability: 42%
[22]
  half-life: 4.2 h
[23]
  AUC at 672 h: 21000 ng·h/mL
[24]
  half-life: 13 h
[4]
  AUC: 8800 ng·h/mL
[25]
  half-life: 3.9 h
[26]
  Vd: 0.5 L/kg
[27]
  Cmax: 1800 ng/mL
[28]
  Cmax: 6100 ng/mL
[29]
  clearance: 7 mL/min/kg
[30]
  Vd: 0.2 L/kg

## C[C@]12CC[C@@H]3c4ccc(O)cc4C[C@@H](CCCCCCCCC[S+]([O-])CCCC(F)(F)C(F)(F)F)[C@H]3[C@@H]1CC[C@@H]2O (stereo partly specified) [FULVESTRANT]
[31]
  AUC at 672 h: 11000 ng·h/mL

## Cc1c(-c2ccc(O)cc2)n(Cc2ccc(OCCN3CCCCC3)cc2)c2ccc(O)cc12 [PIPENDOXIFENE]
[7]
  AUC at 672 h: 7000 ng·h/mL
